The test system of one test is osteoclasts (OCs). The experiment in a line: Resorption of calcium-phosphate matrices by OCs. It is filed as cell-based, mouse. To be noted: 25 μM C21 (not shown). On the procedure:
BMMs were isolated from long bones of 4- to 8-week-old animals as described (16) and OCs obtained by culturing BMMs with RANKL (100 ng/ml) and M-CSF (10 ng/ml) (Peprotech) for 5 days. RAW264.7 cells were grown for 5 days with RANKL (50 ng/ml) to obtain OCs. For resorption, OCs were differentiated in multiwell chambers or on coverslips coated with calcium phosphate (Osteologic Biocoat, BD Bioscience) or in 96-well plates containing a bovine bone slice (IDS Nordic Bioscience). Mesenchymal stem cells (MSCs) were isolated from mouse bone marrow and grown as described (18).
OCs in multiwell Osteologic Biocoat were fixed at day 7 of differentiation and calciumphosphate was stained with von Kossa as described (BRAZIER et al, 2009, see above). The entire well surface was imaged using a Zeiss AxioimagerZ1 microscope. Well image was reconstituted and resorbed areas were measured using MetaMorph 7.0 software (Molecular Devices). For bone resorption assays, OCs were derived from BMMs in 96-well plates containing bovine bone slices. At day 5 of differentiation, medium was changed with fresh medium. After 2 days, CTx concentrations were measured using Crosslap (IDS Nordic Bioscience). […]

A further test has as its system C57B1/6 mice. The experiment in a line: Ovariectomy-induced bone loss model in C57B1/6 mice. Type of test: in vivo, mouse. To be noted: 5 days per week for 28 days. From the text:
After menopause, a decrease in bone density due to an increase in bone resorption, leading to osteoporosis, is observed. The decrease in estrogen secretion causes i) an increase in the osteoclast level due to the decrease in secretion of OPG, a RANKL inhibitor, by the osteoblasts and ii) an increase in the lifetime of the osteoclasts due to a decrease in the production of FasL, a promoter of apoptosis, by these cells. The ovariectomy model in the mouse is classically used as a model for this physiological disturbance (see FIG. 15).
Protocol experiment 1: 8 C57B1/6 mice underwent ovariectomy (OVX) and 4 mice were operated on without ablation of the ovaries (SHAM). After this operation, 4 OVX mice received the C21 compound (test group), 5 mg/d/kg, 5 days per week for 28 days, as a retro-orbital sinus injection, and the other 4 OVX mice (control group) and the SHAM group received PBS.
Protocol experiment 2: 16 C57B1/6 mice underwent ovariectomy (OVX) and 15 mice were operated on without ablation of the ovaries (SHAM). After this operation, 8 OVX mice received the C21 compound (test group), 15 mg/d/kg solubilized in 100 μl of 5% EtOH and 4% solutol, 5 days per week for 28 days, as an intraperitoneal injection, and the other 8 OVX mice (control group) and the SHAM group received 100 μl of 5% ethanol/4% solutol vehicle solution. […]

Molecules are shown by their SMILES.

Regarding `O=S(=O)(Nc1cc(Cl)cc(Cl)c1)c1ccccc1` [C21, N-(3,5-dichlorophenyl)benzenesulfonamide], the “Resorption of calcium-phosphate matrices” value with osteoclasts (OCs) is “efficiently inhibits”. For the same compound, in the test with C57B1/6 mice (experiment 1, 5 mg/d/kg, retro-orbital sinus injection), the “Bone mass (BV/TV, right distal femur, micro-tomography) of mice having undergone ovariectomy” value is “not reduced”. The “Bone mass of OVX animals compared with SHAM animals” value with C57B1/6 mice (experiment 2, 15 mg/d/kg, intraperitoneal injection) is “not significantly different”.

The record behind these values is patent US8940798B2, “Compounds useful for treating and/or preventing disease-associated bone loss” (Centre National de al Recherche Scientifique (CNRS), priority 2011, dated 2015).
